Where two headings read alike, the source gives them in different places.
Assays:
[1] = molecular target: GDP-bound KRAS protein (aa 1-169), containing both G12C and C118A amino acid substitutions (Homo sapiens, UniProt P01116, C118A/G12C); test: Coupled nucleotide exchange assay (SOS-mediated, AlphaScreen); assay type: biochemical; details: for Coupled exchange IC50 (5 min): 5 min compound pre-incubation; for Coupled exchange IC50 (2 h): 2 h compound pre-incubation
[2] = test system: Phosphorylation of ERK1/2 in MIA PaCa-2 cells; test: Phospho-ERK1/2 MSD assay in MIA PaCa-2 cells; assay type: cell-based
Method in brief: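 MIA PaCa-2 or A549 cells were treated with a compound dose-response titration for 2 or 4 h at 37 °C, then stimulated with 10 ng/mL EGF for 10 min. Phospho-ERK1/2 in RIPA lysates was measured by MSD whole-cell lysate immunoassay, and IC50 came from a 4-parameter logistic fit.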

[3] = test system: Phosphorylation of ERK1/2 in A549 cells; test: Phospho-ERK1/2 MSD assay in A549 cells; assay type: cell-based; details: Homo sapiens
Experimental: For compounds in Table 89, the following assay conditions were employed:
Phospho-ERK1/2 MSD Assay:
Sixteen hours prior to compound treatment, MIA PaCa-2 or A549 cells were seeded in 96-well cell culture plates at a density of 25,000 cells/well and incubated at 37° C., 5% CO2. A compound dose-response titration was diluted in growth media, added to appropriate wells of a cell culture plate, and then incubated at 37° C., 5% CO2 for 2 or 4 hours (see Table 15). Following compound treatment, cells were stimulated with 10 ng/mL EGF (Roche 11376454001) for 10 min, washed with ice-cold Dulbecco's phosphate-buffered saline, no Ca^2+ or Mg^2+ (ThermoFisher Scientific 14190144), and then lysed in RIPA buffer (50 mM Tris-HCl pH 7.5, 1% Igepal, 0.5% sodium deoxycholate, 150 mM NaCl, and 0.5% sodium dodecyl sulfate) containing protease inhibitors (Roche 4693132001) and phosphatase inhibitors (Roche 4906837001). Phosphorylation of ERK1/2 in compound-treated lysates was assayed using Phospho-ERK1/2 Whole Cell Lysate kits (Meso Scale Discovery K151DWD) according to the manufacturer's protocol. Assay plates were read on a Meso Scale Discovery Sector Imager 6000, and data were analyzed using a 4-parameter logistic model to calculate IC50 values.

[4] = Homo sapiens, MIA PaCa-2, 2 h, read-out: p-ERK IC50 (2 h; MIA PaCa-2), 2 h compound treatment
[5] = A549, 2 h, read-out: p-ERK IC50 (2 h; A549), 2 h compound treatment
[6] = A549, 4 h, read-out: p-ERK IC50 (4 h; A549), 4 h compound treatment
[7] = Homo sapiens, MIA PaCa-2, 4 h, read-out: p-ERK IC50 (4 h; MIA PaCa-2), 4 h compound treatment

Sequence of GDP-bound KRAS protein (aa 1-169), containing both G12C and C118A amino acid substitutions (P01116 1-169 isoform P01116-2 G12C/C118A): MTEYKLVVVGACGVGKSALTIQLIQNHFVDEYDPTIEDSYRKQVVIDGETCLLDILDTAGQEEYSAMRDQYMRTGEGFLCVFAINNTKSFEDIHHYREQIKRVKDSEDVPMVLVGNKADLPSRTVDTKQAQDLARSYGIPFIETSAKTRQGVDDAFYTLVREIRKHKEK

SMILES	Coupled exchange IC50 (5 min) [1]	IC50 [2, 4] [nM]	IC50 [3, 5] [nM]	Coupled exchange IC50 (2 h) [1]	IC50 ([2]; read-out: p-ERK IC50 (4 h; MIA PaCa-2), 4 h compound treatment) [nM]	IC50 [3, 6] [nM]	IC50 [2, 7] [nM]	IC50 ([2]; read-out: p-ERK IC50 (2 h; MIA PaCa-2), 2 h compound treatment) [nM]
C=CC(=O)N1CCN(c2nc(=O)n(-c3ccccc3C(C)C)c3nc(-c4ccccc4F)c(F)cc23)[C@@H](C)C1 (single isomer, unassigned) [Example 57-7-2]	0.384 | nda μM	236	≥ 10000					
C=CC(=O)N1CCN(c2nc(=O)n(-c3ccc(OCCN=[N+]=[N-])cc3C(C)C)c3nc(N4CCCCC4)c(Cl)cc23)[C@@H](C)C1 [Example 117, 1-(4-(2-Azidoethoxy)-2-(2-propanyl)phenyl)-6-chloro-4-((2S)-2-methyl-4-(2-propenoyl)-1-piperazinyl)-7-(1-piperidinyl)pyrido[2,3-d]pyrimidin-2(1H)-one]		4880	≥ 10000	nda | 0.916 μM				
C=CC(=O)N1CCN(c2nc(=O)n(-c3ccccc3C(C)C)c3cc(Br)c(Cl)cc23)[C@@H](C)C1 (single isomer, unassigned) [Example 9-17-2]	1.66 µM	1060	≥ 10000	163 nM	859	≥ 100000		
C=CC(=O)N1CCN(c2nc(=O)n(-c3c(C)cccc3C)c3nc(-c4c(O)cccc4F)c(Cl)cc23)CC1 [Example 8-8, 6-chloro-1-(2,6-dimethylphenyl)-7-(2-fluoro-6-hydroxyphenyl)-4-(4-(2-propenoyl)-1-piperazinyl)pyrido[2,3-d]pyrimidin-2(1H)-one]	0.653 µM	327		117 nM		≥ 100000	143	
C=CC(=O)N1CCN(c2nc(=O)n(-c3ccccc3C3CCC3)c3nc(-c4c(O)cccc4F)c(Cl)cc23)[C@@H](C)C1 [Example 54-10, 6-chloro-1-(2-cyclobutylphenyl)-7-(2-flnoro-6-hydroxyphenyl)-4-((2S)-2-methyl-4-(2-propenoyl)-1-piperazinyl) pyrido[2,3-d]pyrimidin-2(1H)-one]	0.185 | nda μM	182	≥ 10000					
C=CC(=O)N1CCN(c2nc(=O)n(-c3nccn3C(C)C)c3nc(-c4c(O)cccc4F)c(Cl)cc23)[C@@H](C)C1 [Example 54-13, 6-chloro-7-(2-fluoro-6-hydroxy-phenyl)-4-((2S)-2-methyl-4-(2-propenoyl)-1-piperazinyl)-1-(1-(2-propanyl)-1H-imidazol-2-yl)pyrido[2,3-d]pyrimidin-2(1H)-one]	0.811 | nda μM	2560	≥ 10000					
C=CC(=O)N1CCN(c2nc(=O)n(-c3c(CC)cccc3CC)c3nc(-c4ccccc4)c(Cl)cc23)[C@@H](C)C1 [Example 54-62, 6-chloro-1-(2,6-diethylphenyl)-4-((2S)-2-methyl-4-(2-propenoyl)-1-piperazinyl)-7-phenyl-pyrido[2,3-d]pyrimidin-2(1H)-one]	0.808 µM	407	≥ 10000	172 nM		≥ 100000	223	
C=CC(=O)N1CCN(c2nc(=O)n(-c3c(CC)cccc3CC)c3nc(-c4c(F)cccc4F)c(Cl)cc23)[C@@H](C)C1 [Example 54-65, 6-chloro-1-(2,6-diethylphenyl)-7-(2,6-difluorophenyl)-4-((2S)-2-methyl-4-(2-propenoyl)-1-piperazinyl) pyrido[2,3-d]pyrimidin-2(1H)-one]	0.253 µM	140	≥ 10000	54 nM		≥ 100000	133	
C=CC(=O)N1CCN(c2nc(=O)n(-c3c(CC)cccc3CC)c3nc(-c4ccccc4O)c(Cl)cc23)[C@@H](C)C1 [Example 54-63, 6-chloro-1-(2,6-diethylphenyl)-7-(2-hydroxyphenyl)-4-((2S)-2-methyl-4-(2-propenoyl)-1-piperazinyl) pyrido[2,3-d]pyrimidin-2(1H)-one]	0.845 µM	291		164 nM		≥ 33300	136	
C=CC(=O)N1CCN(c2nc(=O)n(-c3ccccc3C(C)C)c3nc(-c4c(O)cccc4F)c(F)cc23)[C@@H](C)C1 (single isomer, unassigned) [Example 57-6-2]	0.208 | nda μM		≥ 10000					99
C=CC(=O)N1CCN(c2nc(=O)n(-c3c(CC)cccc3CC)c3nc(-c4ccccc4F)c(Cl)cc23)[C@@H](C(=O)OC)C1 [Example 55-30, methyl (2R)-1-(6-chloro-1-(2,6-diethylphenyl)-7-(2-fluorophenyl)-2-oxo-1,2-dihydropyrido[2,3-d]pyrimidin-4-yl)-4-(2-propenoyl)-2-piperazinecarboxylate]	1.95 | nda μM	1610	≥ 10000					
C=CC(=O)N1CCN(c2nc(=O)n(-c3c(CC)cccc3CC)c3nc(-c4ccccc4C4CC4)c(Cl)cc23)[C@@H](C)C1 [Example 54-22, 6-chloro-7-(2-cyclopropyl-phenyl)-1-(2,6-diethyl-phenyl)-4-((2S)-2-methyl-4-(2-propenoyl)-1-piperazinyl) pyrido[2,3-d]pyrimidin-2(1H)-one]	0.347 µM	245	≥ 33300	97 nM				
C=CC(=O)N1CCN(c2nc(=O)n(-c3nocc3C3CC3)c3nc(-c4c(O)cccc4F)c(Cl)cc23)[C@@H](C)C1 [Example 54-24, 6-chloro-1-(4-cyclopropyl-1,2-oxazol-3-yl)-7-(2-fluoro-6-hydroxyphenyl)-4-((2S)-2-methyl-4-(2-propenoyl)-1-piperazinyl) pyrido[2,3-d]pyrimidin-2(1H)-one]	0.797 | nda μM	942	≥ 10000					

Other lines, results leading:

Coupled exchange IC50 (5 min) [1]	IC50 [2, 4] [nM]	IC50 [3, 5] [nM]	Coupled exchange IC50 (2 h) [1]	IC50 ([2]; read-out: p-ERK IC50 (4 h; MIA PaCa-2), 4 h compound treatment) [nM]	IC50 [3, 6] [nM]	IC50 [2, 7] [nM]	IC50 ([2]; read-out: p-ERK IC50 (2 h; MIA PaCa-2), 2 h compound treatment) [nM]	SMILES
0.919 µM	1000	40900	115 nM		86600	710		C=CC(=O)N1CCN(c2nc(=O)n(C(C(C)C)C(C)C)c3nc(-c4ccccc4F)c(Cl)cc23)CC1 [Example 60-31, 6-chloro-1-(2,4-dimethyl-3-pentanyl)-7-(2-fluorophenyl)-4-(4-(2-propenoyl)-1-piperazinyl)pyrido[2,3-d]pyrimidin-2(1H)-one]
0.147 | nda μM	845	≥ 10000						C=CC(=O)N1CCN(c2nc(=O)n(-c3ccncc3C3CC3)c3cc(-c4c(O)cccc4F)c(Cl)cc23)[C@@H](C)C1 [Example 62-3, 6-chloro-1-(3 cyclopropyl-4-pyridinyl)-7-(2-fluoro-6-hydroxyphenyl)-4-((2S)-2-methyl-4-(2-propenoyl)-1-piperazinyl)-2(1H)-quinazolinone]
1.02 µM	657	≥ 100000	101 nM		65000	552		C=CC(=O)N1CCN(c2nc(=O)n(CC3(C(F)(F)F)CC3)c3nc(-c4c(O)cccc4F)c(Cl)cc23)CC1 [Example 60-3, 6-chloro-7-(2-fluoro-6-hydroxyphenyl)-4-(4-(2-propenoyl)-1-piperazinyl)-1-((1-(trifluoromethyl)cyclopropyl)methyl)pyrido[2,3-d]pyrimidin-2(1H)-one]
2.24 | nda μM	946	≥ 10000						C=CC(=O)N1CCN(c2nc(=O)n(-c3ccccc3C)c3nc(-c4ccccc4F)c(Cl)cc23)[C@@H](C)C1 [Example 60-14, 6-chloro-7-(2-fluorophenyl)-1-(2-methylphenyl)-4-((2S)-2-methyl-4-(2-propenoyl)-1-piperazinyl)pyrido[2,3-d]pyrimidin-2(1H)-one]
0.686 | nda μM	492	≥ 10000						C=CC(=O)N1CCN(c2nc(=O)n(-c3ccccc3C)c3nc(-c4c(O)cccc4F)c(Cl)cc23)[C@@H](C)C1 [Example 60-15, 6-chloro-7-(2-fluoro-6-hydroxyphenyl)-1-(2-methylphenyl)-4-((2S)-2-methyl-4-(2-propenoyl)-1-piperazinyl)pyrido[2,3-d]pyrimidin-2(1H)-one]
